Reference: patent US20230293629A1, “METHODS FOR ATTENUATING RELEASE OF INFLAMMATORY MEDIATORS AND PEPTIDES USEFUL THEREIN” (BIOMARCK PHARMACEUTICALS LTD., priority 2006, published 2023)
Where a SMILES comes first, the peptide text is derived from it. Where no end group is shown, it is not given here. The star is where a group is joined. Myristoyl = CCCCCCCCCCCCCC(=O)*

Test system: LPS-induced lung inflammation
Experiment: In vivo LPS-induced lung inflammation, BAL analysis
Set-up: species or system mice
Conditions: for Hb / MPO / LDH / Total Protein: BAL fluid; for Inhibition of neutrophil migration: relative to PBS/LPS treatment
Description: This example was performed essentially according to methods described by Cox, G, Crossley, J., and Xing, Z.; Macrophage engulfment of apoptotic neutrophils contributes to the resolution of acute pulmonary inflammation in vivo; Am. J. Respir. Cell Mol. Biol. 12:232-237, 1995; Hirano S., Quantitative time-course profiles of bronchoalveolar lavage cells following intratracheal instillation of lipopolysaccharide in mice, Ind. Health 35:353-358, 1997; and Ulich T R, Watson L R, Yin S M, Guo K Z, Wang P, Thang H, and del Castillo, J. Am. J. Pathol. 138:1485-1496, 1991.
Thus, six to seven week old CD1 female mice weighing 15-20 grams were obtained from Charles River laboratories and housed in groups of 5 mice per cage. The animals received standard rodent diet and filtered water ad libitum. The animals were housed under NIH prescribed guidelines at standard temperature (64° to 79° F.) and relative humidity of 30 to 70%.
Five treatment groups of mice, with 5 animals in each group, were treated either with PBS followed by PBS, with PBS followed by LPS, with (myristoylated) MANS peptide followed by LPS, with acetylated peptide of SEQ ID NO: 1, followed by LPS, or with acetylated peptide of SEQ ID NO: 106, followed by LPS.
Intranasal peptide instillation pre-treatment: A peptide of the invention to be evaluated in vivo for its ability to inhibit or reduce LPS-induced lung inflammation was dissolved in PBS at a concentration of 1 mM. Animals, anesthetized with 0.8% isofluorane by inhalation, were pretreated with 2×10 μL intranasal bolus of the peptide solution into one nostril 30 minutes prior to subsequent instillation with LPS.
Intranasal LPS instillation: Lipopolysaccharide (LPS) Endotoxin (Escherichia coli Serotype 011:B4 derived endotoxin; Sigma, St Louis, MO; see Sigma product information sheet L4130 titled Lipopolysaccharides from Escherichia coli 011:B4) was dissolved into phosphate buffered saline (PBS) at 2,500 μg/mL. To expose animals to endotoxin, a 10 μL intranasal bolus of 2,500 μg/ml endotoxin solution was administered to animals which had been anesthetized with 0.8% isofluorane by inhalation. The 10 μL bolus was applied into one nostril. Animals were monitored for labored breathing, lethargy, and decreased water/food intake following the endotoxin instillations.
Bronchoalveolar Lavage (BAL): Six hours after the last instillation, the animals were anesthetized (90 mg/kg Nembutal) and sacrificed by exsanguination. The lung was serially lavaged 2 times with 1.0 mL aliquots of PBS. The collected BAL fluid was centrifuged to remove the cells for subsequent counting and differential analysis. Recovered lavage fluid was used for analysis of total protein, myeloperoxidase (MPO), LDH, and hemoglobin.
Analysis: Aliquots of the BAL fluid were used immediately to assay for the levels of LDH, total protein, or hemoglobin using the COBAS Fara analyzer (COBAS FARA II automated analyzer; Roche Diagnostic Systems Inc., Montclair, NJ). An aliquot of BAL fluid was frozen at −80° C. for subsequent quantitation of myeloperoxidase (MPO) with a mouse-specific ELISA assay (Cell Sciences, Inc., Canton, Mass). BAL data were analyzed by standard techniques to examine differences between the control and treatment groups.

Compound: CCCCCCCCCCCCCC(=O)NCC(=O)N[C@@H](C)C(=O)N[C@@H](CCC(N)=O)C(=O)N[C@@H](Cc1ccccc1)C(=O)N[C@@H](CO)C(=O)N[C@@H](CCCCN)C(=O)N[C@H](C(=O)N[C@@H](C)C(=O)N[C@@H](C)C(=O)N[C@@H](CCCCN)C(=O)NCC(=O)N[C@@H](CCC(=O)O)C(=O)N[C@@H](C)C(=O)N[C@@H](C)C(=O)N[C@@H](C)C(=O)N[C@@H](CCC(=O)O)C(=O)N[C@@H](CCCNC(=N)N)C(=O)N1CCC[C@H]1C(=O)NCC(=O)N[C@@H](CCC(=O)O)C(=O)N[C@@H](C)C(=O)N[C@@H](C)C(=O)N[C@H](C(=O)N[C@@H](C)C(=O)O)C(C)C)[C@@H](C)O [MANS] (Myristoyl-GAQFSKTAAKGEAAAERPGEAAVA-OH; C-terminus assumed)
- Total cells counted (BAL 6 h after intranasal LPS, 2×10 μL 1 mM peptide intranasal 30 min before LPS, PBS/LPS 264,200, PBS/PBS 157,020): 208,457
- Hb (Table 4 experiment, PBS/LPS 0.19, PBS/PBS 0.00): 0.05 g/dL
- MPO (Table 4 experiment, PBS/LPS 28.98, PBS/PBS 3.28): 9.49 ng/mL
- LDH (Table 4 experiment, PBS/LPS 60.40, PBS/PBS 68.20): 68.57 units/L
- Total Protein (Table 4 experiment, PBS/LPS 272.40, PBS/PBS 125.60): 175.00 µg/mL
- % Neutrophils of total cells (Table 4 experiment, PBS/LPS 41.7, PBS/PBS 18.7): 30.9%
- Total neutrophils counted (Table 4 experiment, PBS/LPS 110,061, PBS/PBS 29317): 64,481
- Inhibition of neutrophil migration: 41.4%

Compound: Ac-GAQFSKTAAK [Ac-GAQFSKTAAK]
- Hb (Table 6 experiment, PBS/LPS 0.00, PBS/PBS 0.00): 0.00 g/dL
- MPO (Table 6 experiment, PBS/LPS 7.19, PBS/PBS 4.88): 1.50 ng/mL
- LDH (Table 6 experiment, PBS/LPS 78.20, PBS/PBS 61.80): 106.86 units/L
- Total Protein (Table 6 experiment, PBS/LPS 116.4, PBS/PBS 113.8): 131.0 µg/mL
- % Neutrophils of total counts (Table 6 experiment, PBS/LPS 24.4, PBS/PBS 21.3): 3.0%
- Total Neutrophil counts (Table 6 experiment, PBS/LPS 80,077, PBS/PBS 66,521): 9,170
- Total Cell Counts (Table 6 experiment, PBS/LPS 327,680, PBS/PBS 312,620): 305,688
- Inhibition of neutrophil migration: 88.5%

Compound: Ac-GAQFSKTAAKGEAAAERPGEAAVA
- Hb (Table 5 experiment, PBS/LPS 0.01, PBS/PBS 0.00): 0.01 g/dL
- MPO (Table 5 experiment, PBS/LPS 37.90, PBS/PBS 5.45): 30.79 ng/mL
- LDH (Table 5 experiment, PBS/LPS 89.9, PBS/PBS 84.0): 74.5 units/L
- Total Protein (Table 5 experiment, PBS/LPS 153.4, PBS/PBS 230.6): 182.75 µg/mL
- % Neutrophils of total counts (Table 5 experiment, PBS/LPS 65.5, PBS/PBS 22.1): 41.47%
- Total Neutrophil counts (Table 5 experiment, PBS/LPS 164,578, PBS/PBS 19,770): 105,499
- Total Cell Counts (Table 5 experiment, PBS/LPS 251,360, PBS/PBS 89,440): 254,400
- Inhibition of neutrophil migration: 35.9%
